Laboratory results reported in US8551984B2, “Aminopyrimidines as SYK inhibitors” (Merck Sharp & Dohme Corp., priority 2009, dated 2013).

Biological target: recombinant human SYK (GST-hSYK fusion protein) (Homo sapiens, UniProt P43405)
Experiment: biochemical
Settings: rhSYK Activity (IC50), recombinant human GST-SYK 5 pM, ATP 25 μM, biotinylated substrate peptide 250 nM, HTRF, 10-dose titration
Text: Homogeneous Time-Resolved Fluorescence (HTRF) Assay for the Recombinant Human SYK Enzyme:

| IC50 [nM] | Structure (SMILES) |
| --- | --- |
| 100 to 1000 | Cc1cc(Nc2nccc(C(F)(F)F)n2)cc(-c2cnc(C(=O)N(C)CCC3OCCO3)s2)c1 [Example 87A-17] |
| < 100 | C=C(F)CNC(=O)c1ncc(-c2cc(C)cc(Nc3nccc(C(F)(F)F)n3)c2)s1 [Example 87A-19] |
| < 100 | Cc1cc(Nc2nccc(C(F)(F)F)n2)cc(-c2cnc(C(=O)NCC3COCCO3)s2)c1 (stereo not shown) [Example 87A-20] |
| < 100 | Cc1cc(Nc2nccc(C(F)(F)F)n2)cc(-c2cnc(C(=O)N(C)Cc3nccn3C)s2)c1 [Example 87A-21] |
| 100 to 1000 | Cc1cc(Nc2nccc(C(F)(F)F)n2)cc(-c2cnc(C(=O)N(C)CC3COCCO3)s2)c1 (stereo not shown) [Example 87A-23] |
| < 100 | COCC(O)CNC(=O)c1ncc(-c2cc(C)cc(Nc3nccc(C(F)(F)F)n3)c2)s1 (stereo not shown) [Example 87A-24] |
| < 100 | Cc1cc(Nc2nccc(C(F)(F)F)n2)cc(-c2cnc(C(=O)NCc3ncc[nH]3)s2)c1 [Example 87A-25] |
| < 100 | Cc1cc(Nc2nccc(C(F)(F)F)n2)cc(-c2cnc(C(=O)N(C)CC(O)CO)s2)c1 (stereo not shown) [Example 87A-26] |
| 1000 to 10000 | Cc1cc(Nc2nccc(C(F)(F)F)n2)cc(-c2cnc(C(=O)N(C)CCS(C)(=O)=O)s2)c1 [Example 87A-27] |
| 100 to 1000 | CCN(C)C(=O)c1ncc(-c2cc(C)cc(Nc3nccc(C(F)(F)F)n3)c2)s1 [Example 87A-28] |
| < 100 | Cc1cc(Nc2nccc(C(F)(F)F)n2)cc(-c2cnc(C(=O)N(CCO)CCO)s2)c1 [Example 87A-29] |
| < 100 | CNC(=O)CN(C)C(=O)c1ncc(-c2cc(C)cc(Nc3nccc(C(F)(F)F)n3)c2)s1 [Example 87A-30] |
| < 100 | Cc1cc(Nc2nccc(C(F)(F)F)n2)cc(-c2cnc(C(=O)N[C@H](c3ccccc3)[C@@H](O)C(=O)O)s2)c1 [Example 87A-32] |
| < 100 | Cc1cc(Nc2nccc(C(F)(F)F)n2)cc(-c2cnc(C(=O)NC(CO)(CO)CO)s2)c1 [Example 87A-34] |
| < 100 | Cc1cc(Nc2nccc(C(F)(F)F)n2)cc(-c2cnc(C(=O)NCCC(=O)O)s2)c1 [Example 87A-35] |
| < 100 | Cc1cc(Nc2nccc(C(F)(F)F)n2)cc(-c2cnc(C(=O)NCCCN(CCO)CCO)s2)c1 [Example 87A-36] |
| < 100 | Cc1cc(Nc2nccc(C(F)(F)F)n2)cc(-c2cnc(C(=O)NC3CCC(C(=O)O)CC3)s2)c1 (stereo not shown) [Example 87A-37] |
| < 100 | NC(=O)c1ncc(-c2cccc(Nc3nccc(C(F)(F)F)n3)c2)s1 [Example 87A-38] |
| 100 to 1000 | Cc1cc(Nc2nccc(C(F)(F)F)n2)cc(-c2cnc(C(=O)N3CCCC3)s2)c1 [Example 87B-1] |
| 100 to 1000 | Cc1cc(Nc2nccc(C(F)(F)F)n2)cc(-c2cnc(C(=O)N3CCN(C)CC3)s2)c1 [Example 87B-3] |
| < 100 | Cc1cc(Nc2nccc(C(F)(F)F)n2)cc(-c2cnc(C(=O)N3CCN(C)C(=O)C3)s2)c1 [Example 87B-4] |
| 100 to 1000 | Cc1cc(Nc2nccc(C(F)(F)F)n2)cc(-c2cnc(C(=O)N3CCN(C)C(=O)C3C)s2)c1 (stereo not shown) [Example 87B-5] |
| < 100 | Cc1cc(Nc2nccc(C(F)(F)F)n2)cc(-c2cnc(C(=O)N3CCn4cccc4C3)s2)c1 [Example 87B-6] |
| 100 to 1000 | CC(=O)N1CCN(C(=O)c2ncc(-c3cc(C)cc(Nc4nccc(C(F)(F)F)n4)c3)s2)CC1 [Example 87B-7] |
| < 100 | Cc1cc(Nc2nccc(C(F)(F)F)n2)cc(-c2cnc(C(=O)N3CCn4ccnc4C3)s2)c1 [Example 87B-9] |

| IC50 [nM] | Structure (SMILES) |
| --- | --- |
| < 100 | Cc1cc(Nc2nccc(C(F)(F)F)n2)cc(-c2cnc(C(=O)N3CC[C@@H](CO)C3)s2)c1 [Example 87B-11] |
| < 100 | Cc1cc(Nc2nccc(C(F)(F)F)n2)cc(-c2cnc(C(=O)N3CCC(C)(O)C3)s2)c1 (stereo not shown) [Example 87B-12] |
| < 100 | Cc1cc(Nc2nccc(C(F)(F)F)n2)cc(-c2cnc(C(=O)N3CCC[S+]([O-])CC3)s2)c1 (stereo not shown) [Example 87B-13] |
| 100 to 1000 | Cc1cc(Nc2nccc(C(F)(F)F)n2)cc(-c2cnc(C(=O)N3CCS(=O)(=O)CC3)s2)c1 [Example 87B-14] |
| 1000 to 10000 | Cc1cc(Nc2nccc(C(F)(F)F)n2)cc(-c2cnc(C(=O)N3CCN(CC(F)(F)F)CC3)s2)c1 [Example 87B-15] |
| < 100 | Cc1cc(Nc2nccc(C(F)(F)F)n2)cc(-c2cnc(C(=O)N3CC[C@H](CO)C3)s2)c1 [Example 87B-16] |
| < 100 | Cc1cc(Nc2nccc(C(F)(F)F)n2)cc(-c2cnc(C(=O)N3CCC(O)C3)s2)c1 (stereo not shown) [Example 87B-17] |
| < 100 | Cc1cc(Nc2nccc(C(F)(F)F)n2)cc(-c2cnc(C(=O)N3C[C@@H](O)[C@@H](O)C3)s2)c1 [Example 87B-18] |
| < 100 | Cc1cc(Nc2nccc(C(F)(F)F)n2)cc(-c2cnc(C(=O)N3CCC(C(=O)O)CC3)s2)c1 [Example 87B-19] |
| < 100 | Cc1cc(Nc2nccc(C(F)(F)F)n2)cc(-c2cnc(C(=O)N3CC(O)CC3C(=O)O)s2)c1 (stereo not shown) [Example 87B-20] |
| < 100 | COC(=O)C1CC(O)CN1C(=O)c1ncc(-c2cc(C)cc(Nc3nccc(C(F)(F)F)n3)c2)s1 (stereo not shown) [Example 87B-21] |
| < 100 | Cc1cc(Nc2nccc(C(F)(F)F)n2)cc(-c2cnc(C(=O)N3CCC(O)(C(=O)O)CC3)s2)c1 [Example 87B-22] |
| < 100 | Cc1cc(Nc2nccc(C(F)(F)F)n2)cc(-c2cnc(CNCC3CCC(=O)N3)s2)c1 (stereo not shown) [Example 88, 5-[({[5-(3-methyl-5-{[4-(trifluoromethyl)pyrimidin-2-yl]amino}phenyl)-1,3-thiazol-2-yl]-methyl}amino)methyl]pyrrolidin-2-one] |
| < 100 | Cc1cc(Nc2nccc(C(F)(F)F)n2)cc(-c2cnc(CNc3cncnc3)s2)c1 [Example 88A-1] |
| < 100 | Cc1cc(Nc2nccc(C(F)(F)F)n2)cc(-c2cnc(CNCC(O)C(F)F)s2)c1 (stereo not shown) [Example 88A-2] |
| < 100 | Cc1cc(Nc2nccc(C(F)(F)F)n2)cc(-c2cnc(CNCc3n[nH]c(=O)[nH]3)s2)c1 [Example 88A-3] |
| < 100 | Cc1cc(Nc2nccc(C(F)(F)F)n2)cc(-c2cnc(CNC3CCS(=O)(=O)C3)s2)c1 (stereo not shown) [Example 88A-5] |
| < 100 | Cc1cc(Nc2nccc(C(F)(F)F)n2)cc(-c2cnc(CN(C)C(C3CC3)C3CC3)s2)c1 [Example 88A-7] |
| < 100 | C=C(F)CNCc1ncc(-c2cc(C)cc(Nc3nccc(C(F)(F)F)n3)c2)s1 [Example 88A-8] |
| < 100 | Cc1cc(Nc2nccc(C(F)(F)F)n2)cc(-c2cnc(CNC(C)c3ccccn3)s2)c1 (stereo not shown) [Example 88A-9] |
| < 100 | Cc1cc(Nc2nccc(C(F)(F)F)n2)cc(-c2cnc(CNc3cn(C(C)C)nn3)s2)c1 [Example 88A-10] |
| < 100 | Cc1cc(Nc2nccc(C(F)(F)F)n2)cc(-c2cnc(CN(C)CCO)s2)c1 [Example 88A-12] |
| < 100 | Cc1cc(Nc2nccc(C(F)(F)F)n2)cc(-c2cnc(CN(CCO)CCO)s2)c1 [Example 88A-13] |
| < 100 | Cc1cc(Nc2nccc(C(F)(F)F)n2)cc(-c2cnc(CNC(C)(CO)CO)s2)c1 [Example 88A-14] |
| < 100 | Cc1cc(Nc2nccc(C(F)(F)F)n2)cc(-c2cnc(CNC(C)CO)s2)c1 (stereo not shown) [Example 88A-15] |

| IC50 [nM] | Structure (SMILES) |
| --- | --- |
| < 100 | CCC(CO)NCc1ncc(-c2cc(C)cc(Nc3nccc(C(F)(F)F)n3)c2)s1 (stereo not shown) [Example 88A-16] |
| < 100 | Cc1cc(Nc2nccc(C(F)(F)F)n2)cc(-c2cnc(CNCC(C)O)s2)c1 (stereo not shown) [Example 88A-17] |
| < 100 | Cc1cc(Nc2nccc(C(F)(F)F)n2)cc(-c2cnc(CNCCO)s2)c1 [Example 88A-18] |
| < 100 | Cc1cc(Nc2nccc(C(F)(F)F)n2)cc(-c2cnc(CNCCCO)s2)c1 [Example 88A-19] |
| < 100 | Cc1cc(Nc2nccc(C(F)(F)F)n2)cc(-c2cnc(CNCCCCO)s2)c1 [Example 88A-20] |
| < 100 | Cc1cc(Nc2nccc(C(F)(F)F)n2)cc(-c2cnc(CNC3(C(=O)O)CC3)s2)c1 [Example 88A-21] |
| < 100 | Cc1cc(Nc2nccc(C(F)(F)F)n2)cc(-c2cnc(CNCC(N)=O)s2)c1 [Example 88A-22] |
| < 100 | Cc1cc(Nc2nccc(C(F)(F)F)n2)cc(-c2cnc(CNCCC(N)=O)s2)c1 [Example 88A-23] |
| < 100 | Cc1cc(Nc2nccc(C(F)(F)F)n2)cc(-c2cnc(CNCCS(C)(=O)=O)s2)c1 [Example 88A-24] |
| < 100 | Cc1cc(Nc2nccc(C(F)(F)F)n2)cc(-c2cnc(CN(C)CCS(C)(=O)=O)s2)c1 [Example 88A-25] |
| < 100 | CCn1cc(NCc2ncc(-c3cc(C)cc(Nc4nccc(C(F)(F)F)n4)c3)s2)nn1 [Example 88A-26] |
| < 100 | Cc1cc(Nc2nccc(C(F)(F)F)n2)cc(-c2cnc(CN(C)CC(O)CO)s2)c1 (stereo not shown) [Example 88A-28] |
| < 100 | Cc1cc(Nc2nccc(C(F)(F)F)n2)cc(-c2cnc(CNC3CCCCNC3=O)s2)c1 (stereo not shown) [Example 88A-29] |
| < 100 | Cc1cc(Nc2nccc(C(F)(F)F)n2)cc(-c2cnc(CNCCN3CCNC(=O)C3)s2)c1 [Example 88A-30] |
| < 100 | CNS(=O)(=O)CCNCc1ncc(-c2cc(C)cc(Nc3nccc(C(F)(F)F)n3)c2)s1 [Example 88A-31] |
| < 100 | Cc1cc(Nc2nccc(C(F)(F)F)n2)cc(-c2cnc(CNc3cc(C(=O)O)n[nH]3)s2)c1 [Example 88A-32] |
| < 100 | Cc1cc(Nc2nccc(C(F)(F)F)n2)cc(-c2cnc(CNCC(C)(C)O)s2)c1 [Example 88A-33] |
| < 100 | Cc1cc(Nc2nccc(C(F)(F)F)n2)cc(-c2cnc(CNC3CCNC3=O)s2)c1 (stereo not shown) [Example 88A-35] |
| < 100 | Cc1cc(Nc2nccc(C(F)(F)F)n2)cc(-c2cnc(CNC3CNC(=O)C3)s2)c1 (stereo not shown) [Example 88A-36] |
| < 100 | Cc1cc(Nc2nccc(C(F)(F)F)n2)cc(-c2cnc(C(C)N(C)C)s2)c1 (stereo not shown) [Example 88A-38] |
| < 100 | Cc1cc(Nc2nccc(C(F)(F)F)n2)cc(-c2cnc(C(C)NC3CNC(=O)C3)s2)c1 (stereo not shown) [Example 88A-39] |
| < 100 | Cc1cc(Nc2nccc(C(F)(F)F)n2)cc(-c2cnc(CN)s2)c1 [Example 88A-40] |
| < 100 | Cc1cc(Nc2nccc(C(F)(F)F)n2)cc(-c2cnc(CNCC(O)CO)s2)c1 (stereo not shown) [Example 88A-41] |
